Measured values published in ChEMBL document CHEMBL5321246, “Aurones: A Promising Scaffold to Inhibit SARS-CoV-2 Replication” (J Nat Prod, 2023).

Tested on: SARS-CoV-2
Assay: Antiviral activity against SARS-CoV-2 infected in Vero E6 cells assessed as inhibition of viral replication preincubated with cells for 1 hr and subsequent viral infection for 2 hrs followed by replacement with fresh medium containing compounds and measured after 24 hrs by qRT-PCR analysis
Type: functional, organism-based
Conditions: Severe acute respiratory syndrome coronavirus 2, Vero C1008

Q: With `O=c1c(O)c(-c2cc(O)c(O)c(O)c2)oc2cc(O)cc(O)c12` [MYRICETIN] as the compound, how does the EC50 read?
A: Its EC50 is 8 µM.
